The text below walks through data of patent US4649145A, “Thiazole derivatives” (Hoechst UK Limited, priority 1982, dated 1987).

The test system of the first test is gastric acid secretion in the perfused rat stomach. Briefly: antisecretory activity in the perfused rat stomach (inhibition of histamine- or pentagastrin-stimulated gastric acid secretion). It is filed as in vivo. As to conditions: Rattus norvegicus, iv, read-out: ID50 (amount of compound required to inhibit the stimulated secretion by 50%). The protocol:
Compounds of this invention were tested for antisecretory activity in the perfused rat stomach. The method of Ghosh and Schild, Brit. […] J. […] After the secretion plateau was reached, the test compound was administered i.v. and the amount of compound required to inhibit the stimulated secretion by 50% was determined.
As for `CN/C(=N/CCSCc1nc[nH]c1C)NC#N` [Cimetidine, N--cyanoN'--methylN"--{2[(4methyl-5-imidazolyl)methyl-thio]ethyl}guanidin, reference compound], the ED50 was found to be 2.5 mg/kg.

Staying with this test, now noted: iv; perfused rat stomach; i.v.; acid secretion stimulated by infusing either histamine or pentagastrin at a constant rate; read-out: ID50 (amount of compound required to inhibit the stimulated secretion by 50%).
As for `NC(N)=Nc1nc(CSCCNC2=NC(=O)CN2)cs1` [Compound 64], the ED50 was 0.45 mg/kg. As for `CC1NC(NCCSCc2csc(N=C(N)N)n2)=NC1=O` (centres unmarked) [Compound 65], the ED50 was 0.7 mg/kg.

For `CCCCC1NC(NCCSCc2csc(N=C(N)N)n2)=NC1=O` (centres unmarked) [Compound 69], the ED50 was found to be 0.15 mg/kg. Same read-out and setting: with `CCC(C)C1NC(NCCSCc2csc(N=C(N)N)n2)=NC1=O` (centres unmarked) [Compound 70] the figure was 1.5 mg/kg. On the same count and under the same terms, with `CC(C)CC1NC(NCCSCc2csc(N=C(N)N)n2)=NC1=O` (centres unmarked) [Compound 71] the figure was 0.2 mg/kg. Same read-out and setting: under `CCCCCCC1NC(NCCSCc2csc(N=C(N)N)n2)=NC1=O` (centres unmarked) [Compound 72] stands 0.16 mg/kg. For `NC(N)=Nc1nc(CSCCNC2=NC(=O)C(Cc3ccccc3)N2)cs1` (centres unmarked) [Compound 74], the ED50 was found to be 2.5 mg/kg. As to `NC(N)=Nc1nc(CSCCNC2=NC(=O)C(c3ccccc3)(c3ccccc3)N2)cs1` [Compound 77], the ED50 was 0.5 mg/kg. In the case of `CC1(C)NC(NCCSCc2csc(N=C(N)N)n2)=NC1=O` [Compound 78], the ED50 came to 1 mg/kg.

`NC(N)=Nc1nc(CSCCNC2=NC(=O)C(=Cc3ccccc3)N2)cs1` [Compound 80]: the ED50 was 0.5 mg/kg. Same read-out and setting: with `COc1ccc(C=C2NC(NCCSCc3csc(N=C(N)N)n3)=NC2=O)cc1` [Compound 81] the figure was 1.2 mg/kg. With `NC(N)=Nc1nc(CSCCNC2=NC(=O)C(=Cc3ccc([N+](=O)[O-])cc3)N2)cs1` [Compound 82], the ED50 turned out to be 0.6 mg/kg. For `NC(N)=Nc1nc(CSCCNC2=NC(=O)C(=Cc3ccc(C(F)(F)F)cc3)N2)cs1` [Compound 83], the ED50 stood at 3.5 mg/kg.

In the case of `NC(N)=Nc1nc(CSCCNC2=NC(=O)C(=Cc3ccco3)N2)cs1` [Compound 85], the ED50 came to 0.2 mg/kg. On the same count and under the same terms, under `NC(N)=Nc1nc(CSCCNC2=NC(=O)C(=CC=Cc3ccco3)N2)cs1` [Compound 86] stands 0.02 mg/kg. The same measure, in the same setting: under `CC=C1NC(NCCSCc2csc(N=C(N)N)n2)=NC1=O` [Compound 87] stands 0.1 mg/kg; under `CCCC=C1NC(NCCSCc2csc(N=C(N)N)n2)=NC1=O` [Compound 88], 0.1 mg/kg. The same measure, in the same setting: under `CCCCCC=C1NC(NCCSCc2csc(N=C(N)N)n2)=NC1=O` [Compound 89] stands 0.15 mg/kg; under `NC(N)=Nc1nc(CSCCNC2=NC(=O)C(=C3CCCCC3)N2)cs1` [Compound 90], 0.18 mg/kg; under `CC(C)=C1NC(NCCSCc2csc(N=C(N)N)n2)=NC1=O` [Compound 91], 0.18 mg/kg. With `CC(C)C=C1NC(NCCSCc2csc(N=C(N)N)n2)=NC1=O` [Compound 92], the ED50 was found to be 0.07 mg/kg. Same read-out and setting: under `CCC(C)C=C1NC(NCCSCc2csc(N=C(N)N)n2)=NC1=O` (centres unmarked) [Compound 93] stands 0.07 mg/kg; under `CCCCC=C1NC(NCCSCc2csc(N=C(N)N)n2)=NC1=O` [Compound 94], 0.06 mg/kg; under `NC(N)=Nc1nc(CSCCNC2=NC(=O)C(=Cc3cccc(Oc4ccccc4)c3)N2)cs1` [Compound 96, 2[2-[(2-Guanidino-4-thiazolyl)]methylthio]ethylamino-5-(3-phenoxybenzylidenyl)-imidazolidin-4-one], 10 mg/kg. Still for that read-out and setting: under `NC(N)=Nc1nc(CSCCNC2=NC(=O)C(=Cc3cccnc3)N2)cs1` [Compound 97] stands 0.5 mg/kg.
